According to patent publication US20030215899A1, “Reversible oxidation of protein tyrosine phosphatases” (CEPTYR, Inc., priority 2002, published 2003):
“Also recorded” adds a separate entry of the source.

Columns and labels:
[1] = tested on: PTPs in Rat-1 cells; experiment: modified in-gel PTP activity assay of Rat-1 cell lysates; type: cell-based; conditions: for inactivation (oxidation) of PTPs in cells: 200 μM
Excerpt: (§1) To determine whether ROS stimulated intracellular tyrosine phosphorylation through the oxidation and inhibition of cellular PTPs, a modified in-gel PTP activity assay was devised, as follows: As substrate, poly (4:1) Glu-Tyr (Sigma) was labeled with [γ-^32P]-ATP using the GST-FER fusion PTK, as described previously (Shen et al., 1998 J. Biol. Chem. 273:6474-81). The labeled substrates were used within three weeks to limit the variation of its specific activity from experiment to experiment. The lysis buffer (25 mM CH3COONa, 1% NP-40, 150 mM NaCl, 10% glycerol, pH 5.5) was degassed at 4° C. for overnight, before catalase and superoxide dismutase (both 100 μg/ml), protease inhibitors and 10 mM iodoacetic acid (IAA) were added. Following stimulation, cells were lysed under anaerobic conditions in an argon chamber. Lysates (25 μg) were processed as described herein and an “in-gel” phosphatase assay (Burridge and Nelson, 1995) was conducted using SDS-PAGE gels containing a radioactively-labeled substrate (1.5×10^6 cpm/20 ml gel solution, approximately 2 μM p-Tyr).
(§2) Cells were triggered with the appropriate stimulus and harvested under anaerobic conditions in lysis buffer containing IAA. Those PTPs that had not encountered ROS in the cell became irreversibly inactivated by alkylation of their active site Cys with IAA. However, in contrast, any PTPs in which the active site Cys had been oxidized in response to the stimulus were resistant to alkylation. For the “in-gel” phosphatase assay, a 10% SDS-PAGE gel was cast containing a radioactively-labeled substrate. An aliquot of cell lysate was subjected to SDS-PAGE and proteins in the gel were sequentially denatured, then renatured in the presence of reducing reagents. […] The reaction was then terminated by fixing, staining and destaining the gel. Finally the gel was dried and exposed to film. The presence of a PTP was visualized by substrate dephosphorylation, as the appearance of a clear, white area on the black background of labeled substrate.

[2] = tested on: MAPK; experiment: anti-phospho-MAPK / anti-MAPK immunoblot; type: cell-based, Rat; conditions: for activation of MAPKs (mitogenic signaling): 200 μM
Protocol: (§3) For immunoprecipitation, cells were rinsed with ice-cold PBS, then lysed in ice-cold 20 mM Hepes (pH 7.5), 1% NP-40, 150 mM NaCl, 10% glycerol, 200 μM […] and protease inhibitors (25 μg/ml of aprotinin and leupeptin). […] The anti-pTyr antibody G104 was described previously (Garton et al., 1997 Oncogene 15, 877-885). Anti-PDGFRββ antibody (Ab-X) was a gift from Dr. Daniel DiMaio at Yale University (Irusta and DiMaio, 1998 EMBO J. 17, 6912-6923). Anti-human G-CSF receptor (G-CSFR) antibody was provided by Dr. Toshio Hirano at Osaka University, Japan (Fukada et al., 1996 Immunity 5, 449-460). Lysate (400 μg) was incubated with 5 μg of antibody conjugated to protein A/G-Sepharose (Amersham Pharmacia, Arlington Heights, Ill.) for 2 hours at 4° C. For immunoblotting, aliquots of total lysates (30 μg per sample) or immunoprecipitates were subjected to SDS-PAGE and transferred to nitrocellulose filters, which were incubated with appropriate primary and secondary antibodies and the specific signals were visualized by the ECL detection system (Amersham Pharmacia).

[3] = molecular target: SHP-2 (E76A mutant) (Homo sapiens, UniProt Q06124, E76A); type: biochemical; conditions: for protection of SHP-2 from alkylation by IAA: 37° C. 5 mins, then 4 mM IAA
[4] = tested on: tyrosine phosphorylation of cellular proteins in Rat-1 cells; experiment: immunoprecipitation (PT-66) and anti-pTyr (G104) immunoblot of tyrosine phosphorylated proteins; type: cell-based
Protocol: as §3

[5] = tested on: intracellular ROS in Rat-1 cells; experiment: ROS-induced DCF fluorescence (microscopy, flow cytometry); type: cell-based; conditions: for DCF fluorescence by fluorescence microscopy: 20 μM H2DCFDA preload, 200 μM, 5 mins; for shift of DCF fluorescence by flow cytometry, H2O2 versus t-BHP: 200 μM each
Protocol: The effects of H2O2 and t-BHP on inactivation of PTPs and activation of MAPK signaling pathways were next compared in a cellular context. Intracellular ROS were measured using 2′,7′-dichlorofluorescein diacetate (H2DCFDA) and 5-(and-6)-chloromethyl-2′,7′-dichlorodihydrofluorescein diacetate (CM-H2DCFDA) (all fluorescent ROS indicators from Molecular Probes, Eugene, Oreg.) either by fluorescence microscopy, using a Zeiss Axiovert 405M inverted microscope equipped with a fluorescence attachment and digital camera, or by cell sorting, using a FACSCalibur System ([…].), according to the manufacturer's recommendations. Rat-1 cells were pre-loaded with 20 μM H2DCFDA in the dark for 20 mins, then exposed to H2O2 and t-BHP (both 200 μM) for 5 mins. Images of ROS-induced DCF fluorescence are shown at magnification 400× (FIG. 3B upper panel). Cells (1×10^5) that underwent the same treatment as above were harvested and resuspended in Hanks' solution, then immediately subjected to flow cytometric analysis to measure ROS-induced DCF fluorescence. The basal peak indicates background fluorescence, whereas the rightward shifted peak indicates ROS-induced DCF fluorescence (FIG. 3B, lower panels). […] Cells were exposed to H2O2 and t-BHP (each at 200 μM) for the indicated times, lysed in the presence of 10 mM IAA and oxidized PTPs were visualized in the in-gel PTP activity assay.
Rat-1 cells were incubated with 20 μM CM-H2DCFDA in the dark for 20 mins, then exposed to peptide growth factors (50 ng/ml) for an additional 10 mins. Images of ROS-induced DCF fluorescence are shown at 50× magnification. (FIG. 6A) The data are representative of 4 independent experiments. In FIG. 6B, Rat-1 cells were exposed to peptide growth factors for the indicated times, lysed in the presence of 10 mM IAA, and oxidized PTPs were visualized by the in-gel PTP assay. […] Aliquots of cell lysate from each treatment group were immunoblotted with anti-phospho-MAPK Ab and re-probed with anti-MAPK Ab.

[6] = tested on: PDGFR; experiment: PDGFR immunoprecipitation (Ab-X) and anti-pTyr immunoblot; type: cell-based, Rat; conditions: 30 mM NAC 40 minutes before PDGF 50 ng/ml
Protocol: as §3
A possible role of oxidation/inactivation of the 70 k PTP in regulating PDGFR-mediated signaling was next investigated by testing the effects of the antioxidant NAC. Cells were incubated for 40 minutes in the presence or absence of 30 mM NAC prior to PDGF stimulation. Excess NAC was removed prior to addition of PDGF (50 ng/ml). […]

[7] = molecular target: T1, 70 kDa PTP (SHP-2) (Rattus norvegicus, UniProt P41499); experiment: modified in-gel PTP assay, growth factor stimulated Rat-1 cells; type: cell-based
T1 construct: endogenous in cells; host or cells: Rat-1 fibroblasts
T1 sequence (P41499 1-593): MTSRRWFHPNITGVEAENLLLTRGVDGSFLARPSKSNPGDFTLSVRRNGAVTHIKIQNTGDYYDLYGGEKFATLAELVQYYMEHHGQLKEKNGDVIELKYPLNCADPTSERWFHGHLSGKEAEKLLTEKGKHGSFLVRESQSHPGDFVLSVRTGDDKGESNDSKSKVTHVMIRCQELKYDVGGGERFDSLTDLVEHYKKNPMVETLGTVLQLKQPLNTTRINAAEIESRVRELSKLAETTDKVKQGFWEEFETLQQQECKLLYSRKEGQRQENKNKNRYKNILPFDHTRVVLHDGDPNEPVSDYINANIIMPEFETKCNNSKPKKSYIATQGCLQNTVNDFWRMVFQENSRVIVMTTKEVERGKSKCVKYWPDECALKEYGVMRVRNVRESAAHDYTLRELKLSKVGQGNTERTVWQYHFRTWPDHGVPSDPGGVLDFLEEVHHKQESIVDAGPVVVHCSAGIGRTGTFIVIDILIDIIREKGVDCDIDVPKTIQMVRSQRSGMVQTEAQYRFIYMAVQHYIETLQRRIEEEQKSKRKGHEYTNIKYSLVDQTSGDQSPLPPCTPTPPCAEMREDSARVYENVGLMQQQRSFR
Excerpt: as §1, §2
As described above, treatment of Rat-1 cells with H2O2 led to inactivation of multiple PTPs (FIGS. 2-3). […] Lysates of PDGF-stimulated Rat-1 cells were then analyzed using the modified in-gel PTP activity assay described above. […] Serum-starved Rat-1 cells were exposed to 50 ng/ml PDGF-BB for the times indicated (FIG. 4A). Lysates were prepared in the presence of 10 mM IAA and subjected to the in-gel PTP assay. […] The result shown is representative of four independent experiments. Oxidation of this 70 kDa PTP was reversible, reaching a maximum at 5 minutes, followed by marked reduction, almost to basal levels, within 20 minutes of PDGF treatment (FIG. 4A).
Rat-1 cells, either untreated (−) or stimulated with 50 ng/ml PDGF (+), were harvested in lysis buffer containing 10 mM IAA.

[8] = tested on: PDGFR/SHP-2 complex; experiment: recruitment of SHP-2 into a complex with the PDGFR; type: cell-based; conditions: ligand stimulation in Rat-1 cells, preliminary studies
Protocol: as §3
Serum-starved Rat-1 cells were exposed to PDGF (50 ng/ml) for the indicated times (FIG. 5A). The PDGFR and associated proteins were immunoprecipitated with antibody Ab-X, and pTyr proteins visualized by immunoblotting with anti-pTyr Ab G104 (FIG. 5A, upper panel). […]

[9] = 30 mM NAC 40 minutes before PDGF 50 ng/ml
[10] = PDGF-treated Rat-1 cells, preliminary experiments

`CCCCS(=N)(=O)CCC(N)C(=O)O` [BSO, L-buthionine-SR-sulfoximine] was tested, and the “effect on recovery of PTP activity following removal of H2O2” value ([1]; 2.5 mM BSO 16 h, 200 μM H2O2 for 2 minutes then removed) was “markedly attenuated the recovery of PTP activity” and the “persistence of PTP oxidation after removal of H2O2” value ([1]; BSO-pretreated Rat-1 cells) was ≥ 30 min.

`OO` [H2O2, hydrogen peroxide] was tested, and the “time to essentially complete recovery (reduction) of PTPs after removal of H2O2” value ([1]; 200 μM H2O2 for 2 minutes, no BSO) was 10 to 20 min, the “inactivation (oxidation) of PTPs in cells” value ([1]; lysis with 10 mM IAA) was “reproducible inactivation of PTPs was detected” and the “H2O2 concentration sufficient to oxidize all PTPs detectable in the assay” value ([1]; 1 min exposure, serum-deprived Rat-1 cells) was 200 µM. The “time to oxidation of active site Cys of various PTPs” value ([1]; H2O2 added to culture media, lysis with 10 mM IAA) was ≤ 1 min, the “activation of MAPKs (mitogenic signaling)” value [2] was “enhanced tyrosine phosphorylation and mitogenic signaling” and the “phosphorylation of ERK MAP kinases” value ([2]; H2O2-treated Rat-1 cells) was “triggered the phosphorylation of ERK MAP kinases”. For the same compound, the “irreversible oxidation of SHP-2” value ([3]; 2 mM H2O2) was “not irreversibly oxidized”, the “protection of SHP-2 from alkylation by IAA” value [3] was “protected SHP-2 from alkylation” and the “tyrosine phosphorylation of cellular proteins” value ([4]; 200 μM) was “enhanced tyrosine phosphorylation”. For the same compound, the “tyrosine phosphorylation of proteins of 120 kDa and 70 kDa” value ([4]; various concentrations of H2O2) was “induced in a dose-dependent fashion”, the “DCF fluorescence by fluorescence microscopy” value [5] was “led to rapid oxidation and the appearance of the fluorescent derivative, DCF” and the “shift of DCF fluorescence by flow cytometry, H2O2 versus t-BHP” value [5] was “no quantitative difference was observed”.

With `CC(=O)N[C@@H](CS)C(=O)O` [NAC, N-acetyl cysteine] the “effect on ligand-induced tyrosine phosphorylation of the PDGFR” value [6] was “greatly diminished”, the “effect on PDGF-induced oxidation of the 70 k PTP” value [7, 9] was “markedly attenuated; also recorded: impaired” and the “effect on H2O2-induced PTP oxidation and inactivation” value ([1]; 30 mM NAC preincubation 40 minutes, then 200 μM H2O2) was “blocked PTP oxidation and inactivation”. The “effect on PDGF-induced activation of MAPKs” value [2, 9] was “completely eliminated”.

`CC(C)(C)OO` [t-BHP, t-butyl hydroperoxide] was tested, and the “inactivation (oxidation) of PTPs in cells” value ([1]; lysis with 10 mM IAA) was “not in response to t-BHP”, the “activation of MAPKs (mitogenic signaling)” value [2] was “unable to activate MAPKs” and the “protection of SHP-2 from alkylation by IAA” value [3] was “did not protect the invariant Cys residue of SHP-2 from alkylation”. The “oxidation and inactivation of SHP-2 in vitro” value ([3]; purified SHP-2 (E76A)) was “unable to oxidize and inactivate SHP-2”, the “tyrosine phosphorylation of cellular proteins” value ([4]; 200 μM) was “less pronounced effects on tyrosine phosphorylation” and the “DCF fluorescence by fluorescence microscopy” value [5] was “led to rapid oxidation and the appearance of the fluorescent derivative, DCF”. The “shift of DCF fluorescence by flow cytometry, H2O2 versus t-BHP” value [5] was “no quantitative difference was observed”.

In the case of PDGF: peptide growth factor, the “time of maximum oxidation of 70 kDa PTP” value ([7]; 50 ng/ml PDGF-BB) is reported as 5 min, the “time to reduction of 70 kDa PTP almost to basal levels” value ([7]; 50 ng/ml PDGF-BB) is reported as ≤ 20 min and the “oxidation of ~70 kDa PTP” value ([7]; 50 ng/ml PDGF-BB, serum-starved Rat-1 cells) is reported as “rapid and transient oxidation; also recorded: transiently oxidized”. The “oxidation and inhibition of SHP-2” value ([7]; peptide growth factors, lysis with 10 mM IAA) was “oxidation and inhibition of SHP-2 was observed; also recorded: induced”, the “fraction of total SHP-2 recruited into a complex with the PDGFR” value [8] was ~10% and the “phosphorylation of MAPKs” value [2, 10] was “enhanced phosphorylation of MAPKs”. For the same compound, the “activation of MAPK” value ([2]; peptide growth factors, Rat-1 cells) was “activated MAPK to a similar extent”, the “tyrosine phosphorylation of cellular proteins” value [4, 10] was “rapid increase in the tyrosine phosphorylation of cellular proteins” and the “production of intracellular ROS” value ([5]; 20 μM CM-H2DCFDA, growth factor 50 ng/ml, 10 mins) was “triggered production of intracellular ROS”.
